Measurements published in ChEMBL document CHEMBL4619743, “Synthetic approaches towards bedaquiline and its derivatives” (2020).
≈ marks a conversion by molar mass, not a printed value.

Key:
[1] = test system: Mycobacterium tuberculosis; experiment: Antimycobacterial activity against Mycobacterium tuberculosis H37Rv; type: functional
[2] = test system: Mycobacterium tuberculosis; experiment: Antimycobacterial activity against Mycobacterium tuberculosis; type: functional

| SMILES | MIC90 [1] [µg/mL] | MIC90 [2] [µg/mL] |
| --- | --- | --- |
| COc1cc2ccc(Br)cc2cc1[C@@H](c1ccccc1)[C@@](O)(CCN(C)C)c1cccc2ccccc12 | 0.59 (≈ 1.06 µM) | – |
| COc1cc2ccc(Br)cc2cc1[C@@H]1O[C@H]1CO | 0.11 (≈ 0.356 µM) | 0.13 to 0.5 (≈ 0.42 to 1.62 µM) |
| COc1cc2ccc(Br)cc2cc1[C@@H](c1ccccc1)[C@@](O)(CCN(C)C)c1cccc(Br)c1 | 0.01 (≈ 0.0171 µM) | – |
